# Values of other authors in patent US8815282B1, “Commercial method for production of room temperature-liquid cetyl myristoleate” (priority 2005, dated 2014).
# System: arthritis in mice
# Conditions: pure CMO, Pharmacological Research 47 (2003) 43-47
structure (smiles),measurement,value
"CCCC/C=C\CCCCCCCC(=O)OCCCCCCCCCCCCCCCC [CMO, cetyl myristoleate]",incidence and severity of arthritis,significant reduction in the incidence and severity of arthritis
